The METLIN SMRT retention time set (Domingo-Almenara et al. 2019)

Assay: gradient 5% acetonitrile 3 min, to 50% in 2 min, to 85% in 15 min, held 3 min, 100 µL/min
Details: column: Zorbax Extend-C18 2.1 x 50 mm; eluents: water / acetonitrile, 0.1% formic acid
Summary of the method: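 Values are retention times taken from adduct peaks that software picked and an analyst inspected. The pure standards were run as mixtures of ~100 molecules on HPLC linked to a quadrupole time-of-flight mass spectrometer, in positive and negative ionization mode. A Zorbax Extend-C18 column (2.1 × 50 mm, 1.8 μm) was used at 100 μL/min with water and acetonitrile, each including 0.1% formic acid.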

| Compound | RP-LC retention time [s] |
| --- | --- |
| COc1ccc(OC)c(S(=O)(=O)N2CCCN(S(=O)(=O)c3ccccc3)CCC(=O)NCC2)c1 | 793 |
| O=C(c1ccc(F)c(Cl)c1)N1CCN=C1N1CCCCC1 | 673 |
| CC(=O)OC[C@]12CCC(C)=C[C@H]1O[C@@H]1[C@H](O)[C@@H](OC(C)=O)[C@@]2(C)[C@@]12CO2 | 750 |
| Cc1noc(-c2ccc(OC3CN(C(=O)NCc4ccc(F)cc4)C3)cc2)n1 | 831 |
| O=C(O)c1ccc2c(c1)N(C(=O)c1ccc(F)cc1)CC2 | 748 |
| CCOC(=O)C1=C(CN(C)Cc2ccccc2)NC(=O)NC1c1ccc(Cl)cc1 (stereo not drawn) | 698 |
| Cc1cccc(-n2c(=O)c3c(cc(C)n3C)n(CC(=O)Nc3ccc(Cl)cc3)c2=O)c1 | 923 |
| c1cc(-c2noc(C3CC3)n2)cc(N2CCOCC2)n1 | 695 |
| Cc1ccc2nc(N3CCN(c4ccc(F)cc4)CC3)c(-c3noc(C)n3)cc2c1 | 732 |
| CCC(=O)N(C)CCc1noc(-c2ccc(C(=O)NCCC(C)C)cc2)n1 | 806 |
| CC(C)c1ccc(-c2csc(NC(=O)c3ccncc3)n2)cc1 | 989 |
| CCOC(=O)c1nc2cc(OC)c(OC)cc2[nH]c1=O | 620 |
| Cc1noc(-c2ccc(-n3cnc(C(=O)NC4CCCCC4)c3)nc2)n1 | 883 |
| Cn1nc(CN2CCCC2)c2c1CCN(S(=O)(=O)c1ccc(F)cc1F)C2 | 622 |
| O=C(NCc1cccs1)C(=O)NCC1(c2ccc(F)cc2)CC1 | 727 |
| Cc1ccc(-c2nc(C)c(C(=O)NC3CC3)s2)cc1 | 888 |
| c1cc(CN2CCCCC2)cc(OCCCNc2nc3ccccc3s2)c1 | 665 |
| O=C(NC1CC1)c1cccc2c1CCN2C(=O)c1ccc(F)cc1 | 739 |
| CN(Cc1ccccc1)c1ccc(-c2noc(CN3CCN(c4ccccc4)CC3)n2)cn1 | 1100 |
| COc1cc(OC)c(NC(=O)c2cc3c(n(-c4ccc(F)cc4)c2=O)CCCC3=O)cc1Cl | 970 |
| COc1ccc(CC(=O)Nc2ccc3c(c2)CCC(=O)N3C)c(Cl)c1 | 768 |
| COc1ccc(N2CCN(C(=O)c3[nH]c(C)c(S(=O)(=O)N4CCC(C)CC4)c3C)CC2)cc1 | 896 |
| COc1ncc(C(=O)NC2CCC(C)CC2)cn1 (stereo not drawn) | 748 |
| CN1CCn2cc(S(=O)(=O)Nc3ccc(Cl)cc3)cc2C1=O | 720 |
| Cc1cc(NCCCn2ccnc2)n2nc(C(F)(F)F)c(-c3ccccc3)c2n1 | 591 |
| O=C(COc1ccccc1)N1CCN(Cc2noc3ccccc23)CC1 | 708 |
| CN1C(=O)CSc2cnn(CC(=O)NC3CCCCC3)c(=O)c21 | 646 |
| CCc1cccc(C)c1Nc1c(-c2ccc(O)c(OC)c2)nc2nc(C)cc(C)n12 | 710 |

| Compound | RP-LC retention time [s] |
| --- | --- |
| CCCCNC(=O)Cn1c2ccccc2c2ncn(Cc3nc(-c4ccccc4)no3)c(=O)c21 | 910 |
| COC(=O)C1C(=O)C2=C(CC1C)Nc1ccccc1NC2c1ccc(Cl)cc1 (stereo not drawn) | 852 |
| O=C(Nc1cnn(-c2ncncc2N2CCCC2)c1)c1ccc(C(F)(F)F)cc1 | 779 |
| Clc1cccc(CSc2ncnc3nc[nH]c23)c1 | 765 |
| Cc1ccc(CN2C(=O)CN(S(C)(=O)=O)CC2(C)C(=O)NCc2ccc(Cl)cc2)cc1 (stereo not drawn) | 906 |
| CC(C)[C@H]1C(=O)O[C@@H]2CCN3CC=C(COC(=O)[C@](C)(O)[C@]1(C)O)[C@H]23 | 584 |
| O=C(N[C@H]1C[C@@H]2C[C@H]1CN2C(=O)c1ccc(OC(F)(F)F)cc1)c1cccs1 | 842 |
| CCSc1nnc(NC(=O)CSc2nncn2C)s1 | 606 |
| COc1ccc(C(=O)CSc2nc(-c3ccc(OC)cc3)ns2)cc1 | 1090 |
| COc1cc(C(=O)N2CCN(c3cc(C)n4c(C)nnc4n3)CC2)cc(OC)c1OC | 587 |
| CCn1cnc2cc(-c3noc(CNC(=O)c4ccc(C)cc4)n3)ccc21 | 654 |
| O=C(NC1CC1)c1ccc2c(c1)CCN2C(=O)C1CCCC1 | 948 |
| COc1ccc(-c2cn3c(CC(=O)NCc4cc(OC)c(OC)c(OC)c4)csc3n2)cc1OC | 652 |
| Cc1sc(NC(=O)c2ccc(Cl)cc2)nc1-c1ccc2c(c1)NC(=O)CO2 | 954 |
| COc1ccc(C(=O)N2[C@H]3CC[C@@H]2c2cnc(C)nc2C3)cn1 | 622 |
| COc1ccc(Cl)cc1S(=O)(=O)NCc1cccnc1-c1cccc(C)c1 | 771 |
| CC1Oc2ccc(-c3csc(NC(=O)c4ccc(F)cc4)n3)cc2NC1=O (stereo not drawn) | 879 |
| CCn1nc(C)c(CCN(C)C(=O)Nc2ccccc2C(=O)OC)c1C | 744 |
| Cc1cccc(-c2noc(Cn3ncn4nc(-c5cccs5)cc4c3=O)n2)c1 | 1100 |
| Cc1cc(C)n(-c2ccc(Nc3ccc(NS(=O)(=O)c4cccc(F)c4)cc3)nn2)n1 | 817 |
| Cc1ccccc1NC(=O)N1CCCC1c1nc(-c2ccc(F)cc2F)no1 (stereo not drawn) | 932 |
| Cc1ccc2nc(-c3ccccc3O)c(Nc3ccc4c(c3)OCCO4)n2c1 | 684 |
| O=C(Nc1c(F)cccc1F)N1CC(c2nc(C3CC3)no2)C1 | 670 |
| O=C(Nc1cccc(Cl)c1)Nc1ncc(CCNc2ncnc3ccsc23)s1 | 721 |
| CCc1nc(OCC(=O)NCc2ccc(N(C)C)cc2)c2c(C)c(C)oc2n1 | 689 |
| Cn1nc(-c2nnc(-c3ccccc3F)o2)c2c1CCN(S(=O)(=O)c1ccc(Cl)cc1)C2 | 979 |
| O=C(Cn1c(=O)cc(-c2nc(C3CC3)no2)c2ccccc21)NCc1ccc(F)cc1 | 923 |

More lines, now with the values ahead:

| RP-LC retention time [s] | Compound |
| --- | --- |
| 710 | Cc1[nH]c(C)c(S(=O)(=O)N2CCC(C(=O)Nc3ccc(F)cc3)CC2)c1C(=O)N1CCCC1 |
| 828 | COCCn1cnc2c(-c3ccccc3)cn(CC(=O)NCc3ccc4c(c3)OCO4)c2c1=O |
| 1350 | CCOc1ccccc1NC(=O)c1cc2c(=O)n(CC(C)C)c3ccccc3n2n1 |
| 608 | O=C([C@@H]1C[C@H](F)CN1C(=O)c1ccc(F)cc1)N1CCOCC1 |
| 574 | Cc1oc(-c2[nH]ncc2C(=O)N2CCCC2)cc1S(=O)(=O)NCc1cccnc1 |
| 763 | CC(C)CCNC(=O)C1(C)Cn2nc(C(=O)NCc3ccccc3F)cc2C(=O)N1C (stereo not drawn) |
| 567 | CC(C)n1c(C2CCN(C(=O)Nc3ccc(Cl)cc3F)C2)nc2ccncc21 (stereo not drawn) |
| 769 | CC(C)n1cnc(S(=O)(=O)N2CCC(C(=O)N3CCc4ccccc43)CC2)c1 |
| 702 | CC(C)CNC(=O)C1CCN(C(=O)c2ncn3c2COC(c2ccccc2)C3)CC1 (stereo not drawn) |
| 685 | CC1CCCN(CC2CCN(S(=O)(=O)Cc3c(F)cccc3Cl)CC2)C1 (stereo not drawn) |
| 1080 | Fc1ccccc1-c1noc(-c2ncn3c2COC(c2ccccc2Cl)C3)n1 (stereo not drawn) |
| 673 | CCOC(=O)C1=C(CN2CCC(C(=O)OCC)CC2)NC(=O)NC1c1ccc(Cl)cc1 (stereo not drawn) |
| 630 | CCN1CCN(CCNC(=O)C(C)C2CCN(C(=O)c3cc4cc(Cl)ccc4[nH]3)CC2)CC1 (stereo not drawn) |
| 867 | Cn1c(=O)sc2cc(S(=O)(=O)N3CCC(C(=O)NCCCc4ccccc4)CC3)ccc21 |
| 596 | O=C(c1ccc2c(c1)ncn2CCN1CCCC1)N1CCN(c2ccccc2F)CC1 |
| 702 | Cn1c(-c2ccccc2)nn(CCNC(=O)C2COc3ccccc3O2)c1=O (stereo not drawn) |
| 725 | CC(C)CCNC(=O)N1CC(c2nc(-c3cccnc3)no2)C2(CCOCC2)C1 (stereo not drawn) |

| RP-LC retention time [s] | Compound |
| --- | --- |
| 850 | O=C(NCC1CCCO1)N1CCN(c2nc3ccccc3n(Cc3ccccc3)c2=O)CC1 (stereo not drawn) |
| 1300 | Cc1csc(-c2cc(S(=O)(=O)N3CCC(Cc4ccccc4)CC3)c(C)n2C)n1 |
| 666 | O=C(Cc1cccs1)N1CCN(S(=O)(=O)C2CC2)CC1 |
| 1040 | O=C(Cn1nc2c(SCc3ccc(Cl)cc3)nccn2c1=O)N1CCN(c2ccccc2)CC1 |
| 740 | COc1cccc(-c2cc(C(=O)N3CCC(NC(=O)c4cccc(Cl)c4)CC3)[nH]n2)c1 |
| 574 | O=C(c1ccoc1)N1CCCC(Nc2ncnc3c2CCC3)C1 (stereo not drawn) |
| 850 | CCOc1ccccc1N(C)C(=O)C1CCCN(c2ncnc3c2nc2n3CCCCC2)C1 (stereo not drawn) |
| 621 | CC(C)CC(=O)NC(Cc1ccccc1)c1nnc(N2CCN(C)CC2)o1 (stereo not drawn) |
| 921 | CC(C)CN1CCn2cc(S(=O)(=O)N3CCN(c4ccccc4)CC3)cc2C1=O |
| 684 | O=C([C@@H]1C[C@H](F)CN1C(=O)Cc1ccccc1F)N1CCCCC1 |
| 830 | Cc1ccc(C(=O)N2CCC(C)CC2)cc1[N+](=O)[O-] |
| 579 | Cc1cnc(C2CC2)n1CCNC(=O)c1cccn1C |
| 717 | Cc1c(CC(=O)NCC(C)C)c(=O)n2nc(-c3ccccc3)nc2n1C |
| 975 | Cn1cnc2c(C(=O)NC3CCCCC3)nn(-c3cccc(Cl)c3)c2c1=O |
| 779 | CC1Cc2ccccc2N1C(=O)C1CCN(S(=O)(=O)c2cn(C(C)C)cn2)CC1 (stereo not drawn) |
| 846 | CN(C(=O)C1CCCN(c2ncnc3c2nc2n3CCCCC2)C1)c1ccccc1Cl (stereo not drawn) |
